Changes are numbered by the printed parent chain. Blank lines part the entries; values can stand above or below the compound they belong to.
What was measured:
[1] = target: T1, Lys^65Arg hFFA2 (Homo sapiens, UniProt O15552, K65R); parameters: method as in PMID 26991104; conditions: not compatible with current results; cited from earlier work
T1 construct: NanoLuc Luciferase (N); eYFP; expressed in transfected cells; host or cells: Flp-In T-REx HEK293, doxycycline-induced
T1 sequence (O15552 1-330 K65R): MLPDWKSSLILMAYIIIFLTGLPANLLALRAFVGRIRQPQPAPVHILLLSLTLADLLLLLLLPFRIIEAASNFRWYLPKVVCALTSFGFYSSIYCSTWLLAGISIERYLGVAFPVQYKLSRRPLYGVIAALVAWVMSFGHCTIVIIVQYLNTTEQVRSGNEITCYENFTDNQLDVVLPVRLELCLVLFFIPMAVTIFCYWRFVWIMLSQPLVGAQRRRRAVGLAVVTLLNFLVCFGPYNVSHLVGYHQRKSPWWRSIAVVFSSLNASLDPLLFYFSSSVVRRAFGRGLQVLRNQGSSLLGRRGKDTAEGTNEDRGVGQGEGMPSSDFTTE

[2] = test system: bovine FFA2; parameters: method as in Hudson et al., unpublished; conditions: bovine FFA2 has Lys at residue 65; ref Hudson et al., unpublished; cited from earlier work
[3] = target: T2, Arg^65Lys mFFA2 (Mus musculus, UniProt Q8VCK6, R65K); test: inositol monophosphate accumulation assay, Arg65Lys mFFA2; assay type: cell-based; conditions: concentration-dependent
T2 construct: eYFP; expressed in transfected cells
T2 sequence (Q8VCK6 1-330 R65K): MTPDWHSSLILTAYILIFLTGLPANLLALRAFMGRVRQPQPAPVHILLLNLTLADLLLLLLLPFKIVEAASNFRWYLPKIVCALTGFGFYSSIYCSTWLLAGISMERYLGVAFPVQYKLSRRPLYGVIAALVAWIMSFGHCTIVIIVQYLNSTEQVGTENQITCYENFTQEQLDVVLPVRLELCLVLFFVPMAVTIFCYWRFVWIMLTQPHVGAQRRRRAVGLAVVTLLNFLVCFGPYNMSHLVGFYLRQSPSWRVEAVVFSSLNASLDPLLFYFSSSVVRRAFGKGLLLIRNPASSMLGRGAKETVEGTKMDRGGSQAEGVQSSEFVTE
Protocol: (§1) All cAMP and inositol monophosphate experiments were performed using Flp-In T-REx HEK293 cells induced to express the receptor of interest. Experiments were carried out using respective homogenous time-resolved FRET-based detection kits (CisBio Bioassays; CisBio, Codolet, France) according to the manufacturer’s protocol. For the cAMP inhibition assay cells were plated at 2000 cells/well in low-volume 384-well plates. The ability of agonists to inhibit 1 μM forskolin-induced cAMP production was assessed following a co-incubation for 30 min with agonist compounds. For the inositol monophosphate accumulation assay cells were plated at 7500 cells/well in low-volume 384-well plates and incubated for 2 h at 37 °C with test compounds. To assess ability of antagonists to inhibit agonist responses, cells were pre-incubated with antagonist compounds for 30 min at 37 °C prior to addition of an EC80 concentration of agonist. Respective reactions were stopped according to the manufacturer’s instructions and the output was measured by with a PHERAstar FS plate reader (BMGLabtech, Aylesbury, UK).

[4] = target: T3, hFFA2 (Homo sapiens, UniProt O15552); test: inositol monophosphate accumulation assay, wild type hFFA2; assay type: cell-based; parameters: expressed in transfected cells; conditions: against an EC80 concentration of compound 1, wild type hFFA2; read-out: pIC50 to inhibit inositol monophosphate response, WT (converted)
T3 sequence (O15552 1-330): T1 sequence (O15552 1-330 K65R) with R65K
Protocol: as §1

[5] = target: T1, Lys^65Arg hFFA2; test: inositol monophosphate accumulation assay, Lys65Arg hFFA2; assay type: cell-based
Protocol: as §1

[6] = target: T4, mFFA2 (Mus musculus, UniProt Q8VCK6); test: inositol monophosphate accumulation assay, mFFA2; assay type: cell-based; conditions: EC80 concentration of C3, wild type mFFA2
T4 construct: eYFP; expressed in transfected cells; host or cells: Flp-In T-REx HEK293, doxycycline-induced
T4 sequence (Q8VCK6 1-330): T2 sequence (Q8VCK6 1-330 R65K) with K65R
Protocol: as §1

[7] = target: T5, Lys^65Ala hFFA2 (Homo sapiens, UniProt O15552, K65A); test: inositol monophosphate accumulation assay, Lys65Ala hFFA2; assay type: cell-based; parameters: NanoLuc Luciferase (N); eYFP; expressed in transfected cells; host or cells: Flp-In T-REx HEK293, doxycycline-induced
T5 sequence (O15552 1-330 K65A): T1 sequence (O15552 1-330 K65R) with R65A
Protocol: as §1

[8] = target: T6, Lys^65Glu hFFA2 (Homo sapiens, UniProt O15552, K65E); test: inositol monophosphate accumulation assay, Lys65Glu hFFA2; assay type: cell-based
T6 construct: NanoLuc Luciferase (N); eYFP; expressed in transfected cells; host or cells: Flp-In T-REx HEK293, doxycycline-induced
T6 sequence (O15552 1-330 K65E): T1 sequence (O15552 1-330 K65R) with R65E
Protocol: as §1

[9] = target: T6, Lys^65Glu hFFA2; test: bias factor β calculation, Lys65Glu hFFA2 compared to WT; assay type: cell-based; conditions: Pathway 2 TGFα shedding
Protocol: (§2) All data are presented as means ± SEM of at least three independent experiments. Data analysis and curve fitting was carried out using the GraphPad Prism software package version 5.0b (GraphPad, San Diego). […] In case of inhibition experiments with antagonists an equivalent analysis was followed to fit an inverse sigmoidal curve. To perform the statistical analysis of curve parameters, data from multiple experiments were fitted independently and resulting curve fit values were analysed with indicated tests. For radioligand binding data, saturation binding curves were generated by fitting the specific binding, which was obtained by subtracting non-specific from total binding, to a one site specific binding model that allows calculation of Kd values for the radioligand at wild type and mutant receptors. To determine affinity of unlabelled ligands, data obtained in displacement assays were fit to an inverse three parameter sigmoidal curve constrained by radioligand affinity and concentration to allow for Ki calculation. To quantify the signaling bias that mutations of hFFA2 show compared to the wild type receptor, bias factor β was calculated by determining the logarithm of the ratio of relative intrinsic activities for a ligand at two different assays[43].

[10] = target: T5, Lys^65Ala hFFA2; test: bias factor β calculation, Lys65Ala hFFA2 compared to WT; assay type: cell-based; parameters: NanoLuc Luciferase (N); eYFP; expressed in transfected cells; host or cells: Flp-In T-REx HEK293, doxycycline-induced; conditions: Pathway 2 TGFα shedding
Protocol: as §2

[11] = target: T1, Lys^65Arg hFFA2; test: bias factor β calculation, Lys65Arg hFFA2 compared to WT; assay type: cell-based; conditions: Pathway 2 TGFα shedding
Protocol: as §2

[12] = target: T3, hFFA2; test: TGFα shedding assay, wild type hFFA2; assay type: cell-based; parameters: HA-tag (C); expressed in transfected cells; host or cells: HEK293, parental and CRISPR/Cas9 G protein-deleted lines, transient transfection
Protocol: A mixture of 250 ng AP-TGFα, 100 ng receptor of interest and 50 ng Gα protein were transfected using polyethyleneimine into one well of HEK293 cells cultured in a 12-well plate. Transfected cells were detached with PBS containing 0.05% trypsin and 0.52 mM EDTA and harvested by centrifugation at 190 × g for 5 min. The cell pellet was resuspended in PBS, followed by an incubation for 15 min at room temperature. After a second centrifugation at 190 × g for 5 min, pelleted cells were resuspended in 4 ml Hank’s Balanced Salt Solution (HBSS) containing 5 mM HEPES (pH7.4) per well in a 12-well plate. The cell suspensions were plated at 90 μl per well in a 96-well plate and incubated at 37 °C with 5% CO2 for 30 minutes. After the equilibration period 10 μl per well of 10× concentration of compounds were added and incubated for 1 h at 37 °C with 5% CO2. Plates were centrifuged at 190 × g for 2 min and 80 μL of supernatant was transferred into another 96-well plate. Solution containing p-NPP (10 mM p-NPP, 40 mM Tris-HCl (pH 9.5), 40 mM NaCl, 10 mM MgCl2) was added at 80 μl per well into supernatant-only plates as well as cell plates. […] Detailed assay development and analysis has been described previously.

[13] = test system: Lys^65 to either Ala or Glu in hFFA2; test: degree of bias to favor Gi-mediated signalling, Lys65 to either Ala or Glu in hFFA2; assay type: cell-based, human; conditions: vs TGFα shedding
Protocol: as §2

[14] = target: T5, Lys^65Ala hFFA2; test: HTRF cAMP inhibition assay, Lys65Ala hFFA2; assay type: cell-based; parameters: NanoLuc Luciferase (N); eYFP; expressed in transfected cells; host or cells: Flp-In T-REx HEK293, doxycycline-induced; conditions: compared to wild type hFFA2
Protocol: as §1

[15] = target: T6, Lys^65Glu hFFA2; test: HTRF cAMP inhibition assay, Lys65Glu hFFA2; assay type: cell-based; conditions: compared to wild type hFFA2
Protocol: as §1

[16] = target: T5, Lys^65Ala hFFA2; conditions: compared with loss of potency in inositol monophosphate assays
Protocol: Membranes were generated from Flp-In T-REx HEK293 cells treated with 100 ng/mL doxycycline to induce expression of receptor of interest. Cells were washed with ice-cold phosphate-buffered saline, removed from dishes by scraping and centrifuged at 3000 rpm for 5 min at 4 °C. Pellets were resuspended in TE buffer (75 mM Tris-HCl, 5 mM EDTA; pH 7.5) containing a protease inhibitor mixture (Roche Applied Science, West Sussex, UK) and homogenized with a 5 ml hand-held homogenizer. This material was centrifuged at 1500 rpm for 5 min at 4 °C and the supernatant was further centrifuged at 50000 rpm for 30 min at 4 °C. The resulting pellet was resuspended in TE buffer and protein content was assessed using a BCA protein assay kit (Pierce, Fisher Scientific, Loughborough, UK).
Binding was initiated by the addition of membranes (5 µg of protein per tube). […] Radioactivity was quantified by liquid scintillation spectrometry.
All data are presented as means ± SEM of at least three independent experiments. […] To perform the statistical analysis of curve parameters, data from multiple experiments were fitted independently and resulting curve fit values were analysed with indicated tests. […]

[17] = test system: human neutrophils; conditions: cited from earlier work

antagonism of C3-mediated inositol monophosphate accumulation at Arg65Lys mFFA2 [3]: fully antagonize
IC50 [4]: 19.1 nM
ability to block compound 1-mediated elevation of inositol monophosphate accumulation at Lys65Arg hFFA2 ([5]; EC80 concentration of compound 1): all but abolished
IC50 ([5]; against an EC80 concentration of compound 1, K65R hFFA2, read-out: pIC50 to inhibit inositol monophosphate response, K65R (converted)): > 31600 nM
effect on C3-stimulated inositol monophosphate production at mFFA2 [6]: unaffected
IC50 ([7]; against an EC80 concentration of compound 1, K65A hFFA2, read-out: pIC50 to inhibit inositol monophosphate response, K65A (converted)): 437 nM
IC50 ([8]; against an EC80 concentration of compound 1, K65E hFFA2, read-out: pIC50 to inhibit inositol monophosphate response, K65E (converted)): > 31600 nM
SMILES: O=C(O)C[C@H](Cc1ccc(C(F)(F)F)cc1)NC(=O)Cc1cccc(Cl)c1 [CATPB, (S)-3-(2-(3-chlorophenyl)acetamido)-4-(4-(trifluoromethyl)phenyl)butanoic acid]
antagonism of C3 at Lys65Arg hFFA2 [1]: effective and competitive antagonist
binding to bovine FFA2 [2]: does not bind CAPTB with high affinity

SMILES: CCC(=O)O [Compound C3, propionate]
β factor (compared to WT) K65E ([9]; Pathway 1 GTPγS): 1.62
β factor (compared to WT) K65E ([9]; Pathway 1 cAMP): 2.10
β factor (compared to WT) K65A ([10]; Pathway 1 GTPγS): 1.78
β factor (compared to WT) K65A ([10]; Pathway 1 cAMP): 2.00
β factor (compared to WT) K65R ([11]; Pathway 1 GTPγS): −0.10
β factor (compared to WT) K65R ([11]; Pathway 1 cAMP): −0.30
potency in TGFα shedding assay (parental HEK293) higher than in inositol monophosphate accumulation assay ([12]; wild type hFFA2): ~10 fold
TGFα shedding response in HEK293 cells lacking Gαq, Gα11, Gα12, Gα13 ([12]; wild type hFFA2, all four G protein α subunits eliminated): no TGFα shedding response
bias to favor Gi-mediated signalling compared to wild type hFFA2, based on [35S]GTPγS binding studies [13]: 41–60 fold
bias to favor Gi-mediated signalling compared to wild type hFFA2, based on cAMP inhibition studies [13]: 100–125 fold
maximal effect in cAMP inhibition at Lys65Ala hFFA2 [14]: greater than at wild type hFFA2
loss of agonist potency at Lys65Ala hFFA2 vs wild type, inositol monophosphate accumulation ([7]; Ala substitution): greater than 30 fold
maximal effect in cAMP inhibition at Lys65Glu hFFA2 [15]: greater than at wild type hFFA2
ability to compete for binding with [3H]GLPG0974 at Lys65Ala hFFA2 [16]: much less affected
loss of agonist potency at Lys65Glu hFFA2 vs wild type, inositol monophosphate accumulation ([8]; Glu substitution): greater than 30 fold

SMILES: CC1(C(=O)N(CCCC(=O)O)Cc2cccc(Cl)c2)CCN1C(=O)c1csc2ccccc12 (stereo not shown) [GLPG0974, 4-[[1-(benzo[b]thiophene-3-carbonyl)-2-methylazetidine-2-carbonyl]-(3-chlorobenzyl)amino]butyric acid]
block of chemotaxis of human neutrophils [17]: effectively blocked chemotaxis of human neutrophils
